Assay results: US20160310445A1, “PREVENTION AND COUNTERACTION OF DIET-INDUCED THROMBOSIS RISK” (VITAK BV, priority 2013, published 2016)

How the values were obtained:
[1] = tested on: uncarboxylated osteocalcin relative to total osteocalcin; test: Vitamin K status by ucOC/tOC ratio in renal transplant recipients treated with menaquinone-7 (Experiment 5); assay type: in vivo, renal transplant recipients (human)
Source text: In yet a further aspect, vitamin K used according to the present invention is to be administered to specific groups of subjects. As already stated supra, mammalian subjects according to the invention are in particular human subjects. Vitamin K may, in the context of the invention, be administered to healthy or apparently healthy human subjects, preferably healthy or apparently healthy adult human subjects, which may benefit from vitamin K supplementation. In particular, these subjects are characterized in that they have a regular vitamin K status and a normal thrombosis risk, particularly a normal venous thrombosis risk. The vitamin K status may e.g. be determined using the ucOC/tOC ratio, i.e. the amount of circulating uncarboxylated osteocalcin (ucOC) relative to the total amount of osteocalcin (tOC). The vitamin K status may also be determined using other methods, e.g. the carboxylation degree of the vascular Gla-protein MGP, but since this assay is not yet commercially available, the ucOC/tOC ratio will be used throughout this document.
In the present study, a group of 32 RTR were randomly subdivided into 4 groups of 8 subjects each and compared with 24 age- and sex-matched healthy volunteers.
The RTR were treated with the following doses of vitamin K2 (menaquinone-7) for 3 months: 0, 90, 180 and 360 μg/day. Blood was taken at baseline and at the end of the study to prepare EDTA plasma and serum. Vitamin K status was assessed by measuring the ucOC/tOC ratio and the thrombosis tendency was estimated from the ETP values.

[2] = tested on: Endogenous Thrombin Potential (thrombin generation in plasma); test: ETP in renal transplant recipients treated with menaquinone-7 (Experiment 5); assay type: in vivo, renal transplant recipients (human)
Source text: (§1) There are several ways in which thrombosis tendency or increased thrombosis risk may be established, but most of them are based on one of the two following principles: • a) Citrated plasma is collected by venipuncture and clotting is induced by adding tissue factor (thromboplastin) and recalcification. The time required to clot is compared to the clotting time of a reference sample and expressed as International Normalized Ratio (INR). This method is sensitive for monitoring patients during anticoagulation treatment (INR>2.0), but insensitive for INR values<1.0 (increased thrombosis risk). • b) Citrated plasma is collected by venipuncture, defibrinated and the conversion of prothrombin into thrombin is initiated by adding tissue factor and calcium. The total amount of thrombin generated in a certain time period is expressed as Endogenous Thrombin Potential (ETP), whereas also other kinetic characteristics (thrombin peak height, time to peak) provide additional information (E. De Smedt, R. Al Dieri, H. M. Spronk, K. Hamulyak, H. ten Cate, H. C. Hemker: Thromb. Haemost. 2008; 100:343-349).
(§2) The ETP reflects the amount of thrombin that can be formed in a period of time following activation of platelet-poor plasma. The amount of thrombin generated is monitored using a chromogenic substrate for thrombin, and results from three independent principles: the circulating concentration of coagulation factors, the concentration of coagulation inhibitors (proteins C and S) and the concentration of thrombin inhibitors such as antithrombin III. Typical ETP curves show a rapid increase of thrombin formed in the first 6-8 minutes after activation, followed by a decline caused by thrombin inhibitors such as antithrombin III. […] Generally, the ETP is expressed as the area under the curve during the first 30 minutes of thrombin formation. […]
The RTR were treated with the following doses of vitamin K2 (menaquinone-7) for 3 months: 0, 90, 180 and 360 μg/day. […] Vitamin K status was assessed by measuring the ucOC/tOC ratio and the thrombosis tendency was estimated from the ETP values.

[3] = tested on: Endogenous Thrombin Potential (thrombin generation in plasma); test: ETP at baseline and after one year of vitamin K1 by tertile of vitamin K status (Experiment 3); assay type: in vivo, postmenopausal women; details: 1 mg/day, group with the highest ucOC/tOC ratio (0.20, n=19), only in this group
Source text: as §1, with “This method is sensitive for monitoring patients during anticoagulation treatment (INR>2.0), but insensitive for INR values<1.0 (increased thrombosis risk). • b) Citrated plasma is collected by venipuncture, defibrinated and the conversion of prothrombin into thrombin is initiated by adding tissue factor and calcium.” left out
as §2, with “III.” for “III. Typical ETP curves show a rapid increase of thrombin formed in the first 6-8 minutes after activation, followed by a decline caused by thrombin inhibitors such as antithrombin III.”

Compound | change of ucOC/tOC ratio with dose ([1]; 0, 90, 180 and 360 μg/day, 3 months, FIG. 5A) | decline of ucOC/tOC ratio compared to baseline ([1]; 180 and 360 μg/day, 3 months) | difference in ucOC/tOC ratio between the 0 μg/day and the 360 μg/day intake groups ([1]; t=3 months) | change of ETP with dose ([2]; 0, 90, 180 and 360 μg/day, 3 months, FIG. 5B) | decline of ETP compared to baseline ([2]; 180 and 360 μg/day, 3 months) | difference in ETP between the 0 μg/day and the 360 μg/day intake groups ([2]; t=3 months) | change of ETP after vitamin K supplementation [3]
CC(C)=CCC/C(C)=C/CC/C(C)=C/CC/C(C)=C/CC/C(C)=C/CC/C(C)=C/CC/C(C)=C/CC1=C(C)C(=O)c2ccccc2C1=O [menaquinone-7] | decreased in a dose-dependent way | statistically significant | significant | decreased at increasing doses | statistically significant | significant | 
CC1=C(C/C=C(\C)CCC[C@H](C)CCC[C@H](C)CCCC(C)C)C(=O)c2ccccc2C1=O [vitamin K1, phylloquinone] |  |  |  |  |  |  | declined significantly
